Entries after “also recorded” stand apart in the source; their conditions may differ.
What was measured:
[1] = Diuresis in water-loaded rats; assay type: in vivo, rat
Experimental: (§1) The effect of a single 500 mg/kg oral dose of AP-28 was determined on (a) diuresis in water-loaded rats, (b) choleresis, (c) the excretion rate of intravenously-injected bromosulfonphthalein in bile, (d) arterial blood pressure.

[2] = Clinical trial, 1st group: insomnia; assay type: in vivo, human; conditions: 400-600 mg one dose at night, 5 to 15 days; seven patients
Experimental: (§2) Clinical trials were performed on three groups of patients, partly hospitalized patients and partly outpatients. It was determined that the effect observed in the experimental pharmacological studies were useful in the treatment of humans as well.
Seven patients complaining of insomnia were treated for a period of time varying from 5 to 15 days. The daily dose was 400-600 mg given as one dose at night.

[3] = Protective effect against electroshock (MES); conditions: AP-28 250 mg/kg i.p., 10 minutes before electroshock
[4] = Protective effect against strychnine (single injection); assay type: in vivo, mouse; conditions: 30 minutes before strychnine
Experimental: This type of antagonism was evaluated in the mouse in three ways, namely: (1) protection from death from one hypodermic injection of strychnine: (2) evaluation of the LD50 of strychnine in mice both treated and untreated with AP-28, and (3) influence on the time required to cause animals to die by slow intravenous perfusion of strychnine. […] Groups of six mice were used. (2) increasing amounts of strychnine sulfate were injected hypodermically. In two experiments 200 or 400 mg/kg of intraperitoneal AP-28 were given 30 minutes prior to strychnine injection and the LD50 was calculated. The following results were obtained (95-percent confidence limits): […]

[5] = Time to death by slow intravenous infusion of strychnine; assay type: in vivo, mouse; conditions: for mean infusion time to cause animals to die: strychnine infusion 0.25 ml/min
Experimental: (3) continuous intravenous infusion at constant rate (0.4 ml/min) of a strychnine sulfate solution (26.66 mg/l) was carried out by injection through a tail vein into mice until they died. One group of animals received 500 mg/kg of AP-28 as preliminary treatment 15 minutes prior to the beginning of infusion. The mean infusion time to cause six control animals to die was 134 ± 3.2 seconds (mean ± SE). The mean infusion time required to obtain the same effect in animals pretreated with AP-28 was 210 ± 6.1 seconds.
In another experiment the infusion rate of strychnine was lowered to 0.25 ml/min. Under this condition, the mean infusion time was 246 ± 3.1 seconds in the case of controls (six animals) and 338 ± 24.3 seconds in that of treated animals.
When the same infusion rate as above was maintained and the amount of AP-28 was reduced to 250 mg/kg, the mean infusion time was 260 ± 13.4 seconds with control animals and 360 ± 21.2 seconds with treated animals.

[6] = Clinical studies, overall; assay type: in vivo, human; conditions: humans
Experimental: as §2

[7] = Influence on amphetamine-induced hypermobility; assay type: in vivo, mouse; conditions: d-amphetamine sulfate 5 mg/kg i.p. + AP-28 250 mg/kg i.p. 15 minutes later
Experimental: Six groups of 4 mice each were treated with 5 mg/kg d-amphetamine sulfate by intraperitoneal administration. Six groups of 4 animals each received the same dose of d-amphetamine sulfate plus 250 mg/kg of AP-28 intraperitoneally 15 minutes after d-amphetamine sulfate; six more groups of four animals each received saline solution and served as control animals. […] The number of times each animal crossed the light beam throughout the 10-minute test was noted.

[8] = Spontaneous mobility (light beam interruptions); assay type: in vivo, mouse
Experimental: Several groups of four mice each were placed in an apparatus designed to provide a measure of spontaneous mobility by counting the number of interruptions of a light beam for a period of 10 minutes. After preliminary measurement of mobility, animals were injected with AP-28 (250 and 500 mg/kg) intraperitoneally. Control animals received saline solution. Ten minutes thereafter the measurement of mobility was repeated. Five groups of mice were used as controls and six other groups were treated with varying doses of AP-28.

[9] = Acute toxicity of AP-28 in the rat; assay type: in vivo, rat (Wistar-Morini Strain); conditions: for Died/treated: in 24 hours; for Remarks: oral
Experimental: AP-28 was administered to adult rats (Wistar-Morini Strain) of both sexes after fasting overnight. It was administered in an aqueous 1-percent suspension of tragacanth gum orally by gastric probe or intraperitoneally.

Choleresis = assay type: in vivo; conditions: single 500 mg/kg oral dose
Experimental: as §1

[10] = oral (gastric probe), 250 mg/kg
[11] = oral (gastric probe), 500 mg/kg
[12] = oral (gastric probe), 1000 mg/kg
[13] = oral (gastric probe), 1500 mg/kg
[14] = oral (gastric probe), 2000 mg/kg

With `CCCCOC(=O)NC1CCOC1=O` (stereo not drawn) [AP-28, α-n-butoxycarbonyl-amino-γ-butyrolactone] the “rate of urine excretion” value ([1]; 500 mg/kg oral daily for 5 subsequent days) was “the rate of urine excretion was slowed”, the diuresis ([1]; single 500 mg/kg oral dose) was “No treatment caused any significant change” and the “effects on awakening (blunting or grogginess)” value [2] was “no blunting or grogginess of their minds when they woke up; also recorded: no apparent effects on awakening”. The Number animals died [3] was 0/8, the “Number animals with clonic convulsions” value ([3]; in parentheses number treated) was 8(8) and the “Number animals with tonic convulsions” value ([3]; in parentheses number treated) was 0(8). For the same molecule, the Animals with convulsions/treated ([4]; 250 mg/kg i.p.) was 7/7, the Died/treated ([4]; 250 mg/kg i.p.) was 1/7 and the “Time of death” value ([4]; 250 mg/kg i.p., extreme values) was 33 min. For the same molecule, the Animals with convulsions/treated ([4]; 500 mg/kg i.p.) was 3/8, the Died/treated ([4]; 500 mg/kg i.p.) was 0/8 and the Animals with convulsions/treated ([4]; 500 mg/kg os) was 5/9. The Died/treated ([4]; 500 mg/kg os) was 0/9, the “mean infusion time to cause animals to die” value ([5]; AP-28 250 mg/kg, control 260 ± 13.4) was 360 ± 21.2 s and the “mean infusion time to cause animals to die (mean ± SE)” value ([5]; AP-28 500 mg/kg, 15 minutes prior, strychnine infusion 0.4 ml/min, control 134 ± 3.2) was 210 ± 6.1 s. The “mean infusion time to cause animals to die” value ([5]; AP-28 500 mg/kg, control 246 ± 3.1) was 338 ± 24.3 s, the adverse effects [6] was “No adverse effects were observed” and the “Mean number of crossings (± SE) in 10 minutes” value [7] was 836 ± 100. The “Percent reduction at 2nd measurement” value ([8]; 250 mg/kg i.p.) was 68.1%, the “mobility, percent of the baseline values” ([8]; 250 mg/kg i.p.) was 31.9% and the “Percent reduction at 2nd measurement” value ([8]; 500 mg/kg i.p.) was 76.9%. The “mobility, percent of the baseline values” ([8]; 500 mg/kg i.p.) was 23.1%, the “Mean number of crossings (± SE)” value ([8]; after treatment, 250 mg/kg i.p.) was 84.1 ± 15 and the “Mean number of crossings (± SE)” value ([8]; after treatment, 500 mg/kg i.p.) was 50.5 ± 5. The “Mean number of crossings (± SE)” value ([8]; before treatment, 250 mg/kg i.p. group) was 261.5 ± 25, the “Mean number of crossings (± SE)” value ([8]; before treatment, 500 mg/kg i.p. group) was 229 ± 15 and the “loss of the righting reflex” value ([9]; highest oral dose) was “did not cause the loss of the righting reflex”. The “Remarks: sedated for” value ([9]; i.p., 250 mg/kg) was “about 15 minutes”, the “Under hypnosis/treated (loss of the righting reflex)” value ([9]; i.p., 250 mg/kg) was 0/4 and the Died/treated ([9]; i.p., 250 mg/kg) was 0/4. For the same molecule, the “Remarks: sedated for” value ([9]; i.p., 500 mg/kg) was “about 20 minutes”, the “Under hypnosis/treated (loss of the righting reflex)” value ([9]; i.p., 500 mg/kg) was 0/4 and the Died/treated ([9]; i.p., 500 mg/kg) was 0/4. The “loss of the righting reflex” value ([9]; i.p., 1 g/kg) was “the loss of the righting reflex occurred”, the “Remarks: under hypnosis for” value ([9]; i.p., 1000 mg/kg) was “about 15 minutes” and the “Under hypnosis/treated (loss of the righting reflex)” value ([9]; i.p., 1000 mg/kg) was 4/4. The Died/treated ([9]; i.p., 1000 mg/kg) was 0/4, the “Remarks: under hypnosis for” value ([9]; i.p., 1500 mg/kg) was “about 30 minutes” and the “Under hypnosis/treated (loss of the righting reflex)” value ([9]; i.p., 1500 mg/kg) was 4/4. For the same molecule, the Died/treated ([9]; i.p., 1500 mg/kg) was 0/4, the “Remarks: under hypnosis for” value ([9]; i.p., 2000 mg/kg) was “about 60 minutes” and the “Under hypnosis/treated (loss of the righting reflex)” value ([9]; i.p., 2000 mg/kg) was 4/4. For the same molecule, the Died/treated ([9]; i.p., 2000 mg/kg) was 0/4, the toxicity ([9]; laboratory animals, summary statement) was “toxicity is nearly negligible” and the “Under hypnosis/treated (loss of the righting reflex)” value [9, 10] was 0/4. The Died/treated [9, 10] was 0/4, the “Under hypnosis/treated (loss of the righting reflex)” value [9, 11] was 0/4 and the Died/treated [9, 11] was 0/4. The “Under hypnosis/treated (loss of the righting reflex)” value [9, 12] was 0/4, the Died/treated [9, 12] was 0/4 and the “Under hypnosis/treated (loss of the righting reflex)” value [9, 13] was 0/4. The Died/treated [9, 13] was 0/4, the “Under hypnosis/treated (loss of the righting reflex)” value [9, 14] was 0/4 and the Died/treated [9, 14] was 0/4. The Remarks ([9]; 250 mg/kg) was “No particular effect”, the Remarks ([9]; 500 mg/kg) was “did not cause any particular effect” and the Remarks ([9]; 1000 mg/kg) was “Slightly sedated; also recorded: a mild sedative effect”. The Remarks ([9]; 1500 mg/kg) was “Sedated”, the Remarks ([9]; 2000 mg/kg (highest oral dose), 2000 mg/kg) was “produced a sedative effect; also recorded: Very sedated” and the “duration of sedative and hypnotic effects” value ([9]; rat) was “not long lasting and the animal returned to normal”. For the same molecule, the LD0 ([9]; rat, oral or intraperitoneal) was “more than 2 g/kg” and the choleresis (Choleresis) was “No treatment caused any significant change”.
